Data taken from paper PMC11589570, “Critical assessment of LC3/GABARAP ligands used for degrader development and ligandability of LC3/GABARAP binding pockets” (Nature Communications, 2024).
Several values for one entry are separate records, joined by “and”; a condition that tells them apart may be missing. Equal entries are not always repeated. Entries after “also recorded” stand apart in the source; their conditions may differ. Where two headings read alike, the source gives them in different places.

Columns and labels:
LC3B = LC3B (Homo sapiens, UniProt Q9GZQ8); assay: FP assay with Cy5-labelled p62 LIR tracer (protein titration and tracer displacement); assay type: binding; settings: for normalized FP signal, p62 LIR tracer displacement: LC3B; for compound titration LC3B (displacement curve, FP signal): two replicate columns per compound
LC3A [1] = target: T1, LC3A (Homo sapiens, UniProt Q9H492); assay: as above; assay type: binding; settings: for normalized FP signal, p62 LIR tracer displacement: LC3A
LC3A [2] = target: T1, LC3A; assay: Isothermal titration calorimetry (ITC); assay type: binding; settings: LC3A
GABARAPL2 = GABARAPL2 (Homo sapiens, UniProt P60520); settings: for CSP: GABARAPL2:ligand molar ratio 1:2; for 3D Mapping code: molar ratio 1:2
GABARAPL2, sequence (P60520 whole entry): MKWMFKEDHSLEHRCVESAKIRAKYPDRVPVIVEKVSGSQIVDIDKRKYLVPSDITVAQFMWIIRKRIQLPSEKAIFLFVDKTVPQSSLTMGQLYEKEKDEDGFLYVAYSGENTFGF

[3] = log10 concentration [M] -3.82391
[4] = log10 concentration [M] -4.1549
[5] = log10 concentration [M] -4.60206
[6] = log10 concentration [M] -5.30103
[7] = log10 concentration [M] -5.69897
[8] = log10 concentration [M] -6.22185
[9] = log10 concentration [M] -6.69897
[10] = log10 concentration [M] -7.30103
[11] = log10 concentration [M] -7.79588
[12] = log10 concentration [M] -8.08092

SMILES: O=C1Nc2ccc(I)cc2C1=Cc1cc(Br)c(O)c(Br)c1 [compound 4]
- normalized FP signal, p62 LIR tracer displacement (LC3B; [3]): 84.7368
- normalized FP signal, p62 LIR tracer displacement (LC3B; [4]): 89.2105
- normalized FP signal, p62 LIR tracer displacement (LC3B; [5]): 90.7895
- normalized FP signal, p62 LIR tracer displacement (LC3B; log10 concentration [M] -5): 95
- normalized FP signal, p62 LIR tracer displacement (LC3B; [6]): 93.9474 and 101.579
- normalized FP signal, p62 LIR tracer displacement (LC3B; [7]): 91.0526
- normalized FP signal, p62 LIR tracer displacement (LC3B; [8]): 96.5789
- normalized FP signal, p62 LIR tracer displacement (LC3B; [9]): 94.2105 and 95.5263
- normalized FP signal, p62 LIR tracer displacement (LC3B; [10]): 96.3158 and 90.2632
- normalized FP signal, p62 LIR tracer displacement (LC3B; [11]): 96.5789
- normalized FP signal, p62 LIR tracer displacement (LC3B; [12]): 96.0526 and 95.2632
- compound titration LC3B (displacement curve, FP signal) (LC3B; [3]): 84.7368 and 89.4737
- compound titration LC3B (displacement curve, FP signal) (LC3B; [4]): 89.4737 and 89.2105
- compound titration LC3B (displacement curve, FP signal) (LC3B; [5]): 90.7895 and 93.1579
- compound titration LC3B (displacement curve, FP signal) (LC3B; log10 concentration [M] -5): 95 and 100.526
- compound titration LC3B (displacement curve, FP signal) (LC3B; [6]): 93.9474 and 101.579
- compound titration LC3B (displacement curve, FP signal) (LC3B; [7]): 91.0526
- compound titration LC3B (displacement curve, FP signal) (LC3B; [8]): 96.5789 and 94.4737
- compound titration LC3B (displacement curve, FP signal) (LC3B; [9]): 94.2105 and 95.5263
- compound titration LC3B (displacement curve, FP signal) (LC3B; [10]): 96.3158 and 90.2632
- compound titration LC3B (displacement curve, FP signal) (LC3B; [11]): 93.1579 and 96.5789
- compound titration LC3B (displacement curve, FP signal) (LC3B; [12]): 96.0526 and 95.2632
- normalized FP signal, p62 LIR tracer displacement (LC3A [1]; [3]): 89.4737
- normalized FP signal, p62 LIR tracer displacement (LC3A [1]; log10 concentration [M] -3.82391, listed as 10O5): 75.5263
- normalized FP signal, p62 LIR tracer displacement (LC3A [1]; log10 concentration [M] -4.1549, listed as 10O5): 82.8947 and 95
- normalized FP signal, p62 LIR tracer displacement (LC3A [1]; [5]): 100.526
- normalized FP signal, p62 LIR tracer displacement (LC3A [1]; log10 concentration [M] -4.60206, listed as 10O5): 87.3684
- normalized FP signal, p62 LIR tracer displacement (LC3A [1]; log10 concentration [M] -5): 94.4737
- normalized FP signal, p62 LIR tracer displacement (LC3A [1]; log10 concentration [M] -5, listed as 10O5): 88.6842
- normalized FP signal, p62 LIR tracer displacement (LC3A [1]; [6]): 95.7895
- normalized FP signal, p62 LIR tracer displacement (LC3A [1]; log10 concentration [M] -5.69897, listed as 10O5): 88.1579 and 98.6842
- normalized FP signal, p62 LIR tracer displacement (LC3A [1]; [8]): 93.1579
- normalized FP signal, p62 LIR tracer displacement (LC3A [1]; log10 concentration [M] -6.22185, listed as 10O5): 102.368
- normalized FP signal, p62 LIR tracer displacement (LC3A [1]; log10 concentration [M] -6.69897, listed as 10O5): 99.4737 and 97.6316
- normalized FP signal, p62 LIR tracer displacement (LC3A [1]; log10 concentration [M] -7.30103, listed as 10O5): 97.6316 and 100
- normalized FP signal, p62 LIR tracer displacement (LC3A [1]; log10 concentration [M] -7.79588, listed as 10O5): 98.6842 and 98.1579
- normalized FP signal, p62 LIR tracer displacement (LC3A [1]; log10 concentration [M] -8.08092, listed as 10O5): 98.9474 and 105.263
- compound titration LC3A (displacement curve, FP signal) (LC3A [1]; log10 concentration [M] -5.30103, two replicate columns per compound): 95.7895
- outcome of ITC titration (LC3A [2]): low solubility in the buffer system
- outcome of ITC titration (LC3A [2]; listed as 10O5): induced protein precipitation
- interaction in 2D NMR titration (GABARAPL2; GABARAPL2, listed as 10O5): only 10O5 (4) was able to interact with GABARAPL2; also recorded: prominent CSP
- CSP induced, K48 HN resonance (GABARAPL2; Molar ratio 10O5:GABARAPL2 0.5): 0.08111
- CSP induced, L50 HN resonance (GABARAPL2; Molar ratio 10O5:GABARAPL2 0.5): 0.0416
- CSP induced, R28 HN resonance (GABARAPL2; Molar ratio 10O5:GABARAPL2 0.5): 0.0281
- CSP induced, V16 HN resonance (GABARAPL2; Molar ratio 10O5:GABARAPL2 0.5): 0.00761
- CSP induced, V31 HN resonance (GABARAPL2; Molar ratio 10O5:GABARAPL2 0.5): 0.04746
- CSP induced, Y109 HN resonance (GABARAPL2; Molar ratio 10O5:GABARAPL2 0.5): 0.01545
- CSP induced, K48 HN resonance (GABARAPL2; Molar ratio 10O5:GABARAPL2 1): 0.1338
- CSP induced, L50 HN resonance (GABARAPL2; Molar ratio 10O5:GABARAPL2 1): 0.06831
- CSP induced, R28 HN resonance (GABARAPL2; Molar ratio 10O5:GABARAPL2 1): 0.04204
- CSP induced, V16 HN resonance (GABARAPL2; Molar ratio 10O5:GABARAPL2 1): 0.03636
- CSP induced, V31 HN resonance (GABARAPL2; Molar ratio 10O5:GABARAPL2 1): 0.08123
- CSP induced, Y109 HN resonance (GABARAPL2; Molar ratio 10O5:GABARAPL2 1): 0.03416
- CSP induced, K48 HN resonance (GABARAPL2; Molar ratio 10O5:GABARAPL2 2): 0.1662
- CSP induced, L50 HN resonance (GABARAPL2; Molar ratio 10O5:GABARAPL2 2): 0.09155
- CSP induced, R28 HN resonance (GABARAPL2; Molar ratio 10O5:GABARAPL2 2): 0.06538
- CSP induced, V16 HN resonance (GABARAPL2; Molar ratio 10O5:GABARAPL2 2): 0.05012
- CSP induced, V31 HN resonance (GABARAPL2; Molar ratio 10O5:GABARAPL2 2): 0.1265
- CSP induced, Y109 HN resonance (GABARAPL2; Molar ratio 10O5:GABARAPL2 2): 0.04477
- CSP induced, K48 HN resonance (GABARAPL2; Molar ratio 10O5:GABARAPL2 4): 0.2294
- CSP induced, L50 HN resonance (GABARAPL2; Molar ratio 10O5:GABARAPL2 4): 0.1327
- CSP induced, R28 HN resonance (GABARAPL2; Molar ratio 10O5:GABARAPL2 4): 0.07911
- CSP induced, V16 HN resonance (GABARAPL2; Molar ratio 10O5:GABARAPL2 4): 0.07334
- CSP induced, V31 HN resonance (GABARAPL2; Molar ratio 10O5:GABARAPL2 4): 0.1464
- CSP induced, Y109 HN resonance (GABARAPL2; Molar ratio 10O5:GABARAPL2 4): 0.06741
- CSP (GABARAPL2; residue A19): 0.086 ppm
- 3D Mapping code (GABARAPL2; residue A19): Orange
- CSP (GABARAPL2; residue A23): 0.058 ppm
- 3D Mapping code (GABARAPL2; residue A23): Orange
- CSP (GABARAPL2; residue A58): 0.016 ppm
- CSP (GABARAPL2; residue A75): 0.00255 ppm
- CSP (GABARAPL2; residue A108): 0.017 ppm
- CSP (GABARAPL2; residue C15): 0.019 ppm
- CSP (GABARAPL2; residue D8): 0.007 ppm
- CSP (GABARAPL2; residue D27): 0.029 ppm
- 3D Mapping code (GABARAPL2; residue D27): Light green
- CSP (GABARAPL2; residue D43): 0.009 ppm
- CSP (GABARAPL2; residue D45): 0.030 ppm
- 3D Mapping code (GABARAPL2; residue D45): Light green
- CSP (GABARAPL2; residue D54): 0.029 ppm
- 3D Mapping code (GABARAPL2; residue D54): Light green
- CSP (GABARAPL2; residue D81): 0.022 ppm
- CSP (GABARAPL2; residue D100): 0.018 ppm
- CSP (GABARAPL2; residue D102): 0.033 ppm
- 3D Mapping code (GABARAPL2; residue D102): Light green
- CSP (GABARAPL2; residue E7): 0.029 ppm
- 3D Mapping code (GABARAPL2; residue E7): Light green
- CSP (GABARAPL2; residue E12): 0.015 ppm
- CSP (GABARAPL2; residue E17): 0.081 ppm
- 3D Mapping code (GABARAPL2; residue E17): Orange
- CSP (GABARAPL2; residue E34): 0.060 ppm
- 3D Mapping code (GABARAPL2; residue E34): Orange
- CSP (GABARAPL2; residue E73): 0.00458 ppm
- CSP (GABARAPL2; residue E96): 0.019 ppm
- CSP (GABARAPL2; residue E98): 0.025 ppm
- CSP (GABARAPL2; residue E101): 0.007 ppm
- CSP (GABARAPL2; residue E112): 0.00563 ppm
- CSP (GABARAPL2; residue F60): 0.00542 ppm
- CSP (GABARAPL2; residue F77): 0.006 ppm
- CSP (GABARAPL2; residue F79): 0.007 ppm
- CSP (GABARAPL2; residue F104): 0.059 ppm
- 3D Mapping code (GABARAPL2; residue F104): Orange
